From PubChem BioAssay AID652028 (The Scripps Research Institute Molecular Screening Center, 2013)
Activity calls are given as the source filed them.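 Rule for the calls: active = fold change under 0.5 at 10 µM in a cell reporter of NFkB inflammatory signaling; inactive = the rest.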

Test system: HEK NFkB luciferase reporter, IL-6 stimulated, luminescence
Assay: blockade of IL-6-induced NFkB reporter activity – HEK cells, luminescence, IL-6 stimulus, powder samples, counter-screen for STAT5 inhibitor project, late-stage follow-up (AID 652028)
Settings: at 10 µM; stronger effect = lower value

Row | SMILES | fold change
1 | CCOC(=O)C1CCCN(CC(=O)/C=C2/N(C)c3ccccc3C2(C)C)C1 (stereo unspecified) | 0.99 (inactive)
2 | Cc1cc[n+](CC(=O)/C=C2\N(C)c3ccccc3C2(C)C)c(C)c1 | 0.848 (inactive)
3 | CN1/C(=C\C(=O)Cn2nnc(-c3ccccc3)n2)C(C)(C)c2ccccc21 | 0.871 (inactive)
4 | O=C(C[n+]1ccc2ccccc2c1)Nc1ccccc1 | 0.947 (inactive)
5 | O=C(C[n+]1ccc2ccccc2c1)c1cc2ccccc2oc1=O | 0.218
6 | CN1/C(=C\C(=O)CN2CCc3ccccc3C2)C(C)(C)c2ccccc21 | 0.879 (inactive)
7 | O=C(C[n+]1ccc2ccccc2c1)c1ccccc1 | 0.911 (inactive)
8 | CN1/C(=C\C(=O)C[n+]2ccccc2)C(C)(C)c2ccccc21 | 0.819 (inactive)
9 | CN1/C(=C\C(=O)CN2C(=O)C3CC=CCC3C2=O)C(C)(C)c2ccccc21 (stereo unspecified) | 0.828 (inactive)
10 | CC(C)(C)C(=O)C[n+]1ccc2ccccc2c1 | 0.915 (inactive)
11 | O=C(C[n+]1ccc2ccccc2c1)c1ccc2ccccc2c1 | 3.27 (inactive)
